Among the data in BindingDB's records for doi:10.7270/Q2TX3CTT (Broad Institute, 2010) are EC50 values, retold here.

Structures can show the parent of a compound that is named as a salt. A value given as a limit tells only on which side of the number the result lay.

The target in the experiment is Glycogen synthase kinase-3 beta (Homo sapiens, UniProt P49841). Put plainly: concentration-response blocking of human GSK3B – biochemical, luminescence, cell-free homogeneous, retest, dose response (AID 434954).
Chain of Glycogen synthase kinase-3 beta (P49841 whole entry): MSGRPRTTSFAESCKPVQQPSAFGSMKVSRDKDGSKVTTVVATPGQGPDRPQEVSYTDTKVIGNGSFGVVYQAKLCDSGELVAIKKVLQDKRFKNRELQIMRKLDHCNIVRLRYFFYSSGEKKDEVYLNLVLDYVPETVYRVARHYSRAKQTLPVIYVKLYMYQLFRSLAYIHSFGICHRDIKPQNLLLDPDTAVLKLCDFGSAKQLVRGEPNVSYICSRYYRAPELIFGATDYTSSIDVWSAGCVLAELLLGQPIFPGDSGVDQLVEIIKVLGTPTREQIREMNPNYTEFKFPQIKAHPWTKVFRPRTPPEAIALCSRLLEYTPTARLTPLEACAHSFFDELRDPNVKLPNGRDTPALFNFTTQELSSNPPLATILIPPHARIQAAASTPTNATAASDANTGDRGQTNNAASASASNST
By EC50 is commonly meant the concentration needed to bring the measured effect to its halfway point. Read a high EC50 as a need for much substance. In turn, `CCc1nc2oc3cc(OC)ccc3c(=O)c2c(=O)n1Cc1ccccc1` [2-ethyl-8-methoxy-3-(phenylmethyl)chromeno[2,3-d]pyrimidine-4,5-dione] had an EC50 of 4.2 µM.

Turning to `Cc1cccc(/C=C2/Sc3ccc(C(=O)NCCCN4CCOCC4)cc3NC2=O)c1` [(2E)-2-[(3-methylphenyl)methylidene]-N-(3-morpholin-4-ylpropyl)-3-oxidanylidene-4H-1,4-benzothiazine-6-carboxamide], the EC50 is greater than 300 µM.

With `CN1CCN(c2ccccc2NC(=O)c2ccc(Br)o2)CC1` [5-bromanyl-N-[2-(4-methylpiperazin-1-yl)phenyl]furan-2-carboxamide], the EC50 was 19.3 µM.

`COCCn1c(SCC(=O)Nc2nc(C)c(Cl)cc2Cl)nc2ccccc21` [N-[3,5-bis(chloranyl)-6-methyl-pyridin-2-yl]-2-[1-(2-methoxyethyl)benzimidazol-2-yl]sulfanyl-ethanamide] gave an EC50 greater than 300 µM.

In turn, `O=C(Nc1ccnn1C1CCN(Cc2cccc(OCCO)c2)CC1)C1CCCC1` [N-[2-[1-[[3-(2-hydroxyethyloxy)phenyl]methyl]piperidin-4-yl]pyrazol-3-yl]cyclopentanecarboxamide] registered an EC50 greater than 300 µM.

Compound `O=C(CN1C(=O)CCC1=O)Nc1ccc(Cc2ccc(NC(=O)CN3C(=O)CCC3=O)cc2)cc1` [2-(2,5-dioxo-1-pyrrolidinyl)-N-[4-[[4-[[2-(2,5-dioxo-1-pyrrolidinyl)-1-oxoethyl]amino]phenyl]methyl]phenyl]acetamide] displayed an EC50 greater than 300 µM.

`O=C(c1cccs1)c1coc2ccc(O)c(CN(CCO)CCO)c12` [[4-[[bis(2-hydroxyethyl)amino]methyl]-5-oxidanyl-1-benzofuran-3-yl]-thiophen-2-yl-methanone;hydrochloride] registered an EC50 greater than 300 µM.

Take `CCn1nc(NC(=O)Cc2ccc(OC)cc2)c2cc3cc(C)ccc3nc21`: the EC50 was greater than 300 µM.

`Cc1ccc(C=NNC(=O)COc2ccc(C)cc2[N+](=O)[O-])cc1` [2-(4-methyl-2-nitrophenoxy)-N'-[(1Z)-(4-methylphenyl)methylene]acetohydrazide] returned an EC50 greater than 300 µM.

Take `COc1ccc(Nc2nc(N)c([N+](=O)[O-])c(NC3CCCCC3)n2)cc1`: the EC50 is greater than 300 µM.

Take `CN=C(NC#N)SCC(=O)c1ccc(Cl)cc1Cl` [[2-(2,4-dichlorophenyl)-2-oxidanylidene-ethyl] N-cyano-N'-methyl-carbamimidothioate]: a half-maximal effect (EC50) was put at 3.19 µM.

With `Cc1c(CCOC(=O)CC23CC4CC(CC(C4)C2)C3)sc[n+]1CC(=O)c1ccc(Br)cc1` [SMR000155561], the EC50 was greater than 300 µM.

As to `CN=C(C)C(C(=O)OC)C(=O)c1ccc(Cl)cc1Cl` (configuration not stated) [SMR000461254], the EC50 is greater than 300 µM.

Consider `O=C(Cc1ccc([N+](=O)[O-])cc1)Nc1ccc2c(c1)C(=O)NC2=O` [SMR000291894], for which the EC50 is greater than 300 µM.

`Cc1ccc(-c2nn(-c3ccccc3)cc2C=Nn2c(-c3cccs3)n[nH]c2=S)cc1` [4-({[3-(4-methylphenyl)-1-phenyl-1H-pyrazol-4-yl]methylene}amino)-5-(2-thienyl)-2,4-dihydro-3H-1,2,4-triazole-3-thione] had an EC50 greater than 300 µM.

Take `CN(C)Cc1c(O)ccc2c(=O)c(-c3ccccc3)c(C(F)(F)F)oc12`: the EC50 was greater than 300 µM.

Take `CNC(=O)c1cc2cccc(OC)c2oc1=O`: the EC50 is greater than 300 µM.

`O=C(Nc1cccc2c1C(=O)NC2=O)c1ccccc1[N+](=O)[O-]` [N-(1,3-dioxo-4-isoindolyl)-2-nitrobenzamide] gave an EC50 greater than 300 µM.

Turning to `Cc1ccnc(NC(=O)c2ccc([N+](=O)[O-])o2)c1` [5-nitro-N-(4-methyl-2-pyridinyl)-2-furamide], the EC50 is greater than 300 µM.

`CC[n+]1c(/C=C/C=C/c2ccc(N(C)C)cc2)sc2ccccc21` [SMR000420206] registered an EC50 of 35.1 µM.

In turn, `COc1ccc(CCNC(=O)CN2CCOc3ccccc32)cc1OC` [2-(2,3-dihydro-1,4-benzoxazin-4-yl)-N-[2-(3,4-dimethoxyphenyl)ethyl]acetamide] returned an EC50 greater than 300 µM.

In turn, `Cc1cc(=O)nc2c3ccccc3n(CC(=O)NCCCN3CCCCC3C)n12` (configuration not stated) [MLS001115992] returned a 50% effective concentration (EC50) greater than 300 µM.

Compound `CNc1nc(N)c([N+](=O)[O-])c(Nc2ccccc2OC)n1` [N4-(2-methoxyphenyl)-N2-methyl-5-nitro-pyrimidine-2,4,6-triamine] returned an EC50 of 3.44 µM.

`CC(C)CCNc1nc(N)c([N+](=O)[O-])c(NC2CCCCC2)n1` gave an EC50 greater than 300 µM.

For the compound `CN(CCO)c1cc(N2CCC3(CC2)OCCO3)c2nonc2c1[N+](=O)[O-]` [MLS000584853], the concentration giving a half-maximal response (EC50) amounted to 68 µM. This counts as double-digit micromolar.

The compound `CC1(C)CC(=O)C2C(=Nc3ncnn3C2c2cccs2)C1` (configuration not stated) [SMR000291528] had an EC50 of 57.1 µM.

As to `Cc1ccc(Nc2nc(N)c([N+](=O)[O-])c(NCc3ccccc3)n2)cc1` [N2-(4-methylphenyl)-5-nitro-N4-(phenylmethyl)pyrimidine-2,4,6-triamine], the EC50 is greater than 300 µM.

`Cc1cc2c(=O)oc(-c3ccc(F)cc3)nc2s1` had an EC50 greater than 300 µM.

`O=C(CSc1nnc(-c2ccncc2)n1-c1ccc(F)cc1)NC(=O)NCc1ccco1` [SMR000065428] yielded a concentration for a half-maximal effect (EC50) greater than 300 µM.

Turning to `CCNC(=S)Nc1ccc2cn[nH]c2c1` [SMR000261305], the concentration for a half-maximal effect (EC50) was greater than 300 µM.

For the compound `CN(C)c1ccc(C(=O)NN2C(=O)c3ccccc3C2=O)cc1` [4-(dimethylamino)-N-(1,3-dioxo-2-isoindolyl)benzamide], the EC50 was greater than 300 µM.

For `CCOC(=O)c1c(C)[nH]c(C)c1S(=O)(=O)NCC(=O)Nc1ccccn1` [ethyl 2,5-dimethyl-4-[[2-oxo-2-(pyridin-2-ylamino)ethyl]sulfamoyl]-1H-pyrrole-3-carboxylate], the concentration for a half-maximal effect (EC50) is greater than 300 µM.

Compound `Cc1nc(Nc2ccccc2)sc1C(=O)c1ccccc1` [(2-anilino-4-methyl-1,3-thiazol-5-yl)(phenyl)methanone] gave an EC50 of 19.8 µM. This counts as double-digit micromolar.

Consider `Cc1ccc(NC2=CC(=O)CC(C)(C)C2)cc1C` [3-(3,4-dimethylanilino)-5,5-dimethyl-1-cyclohex-2-enone], for which the EC50 is greater than 300 µM.

On to `O=C(Nc1ncc(Cc2ccccc2)s1)C1CCCO1` (configuration not stated) [MLS000100685], for which the response was half-maximal at 17.6 µM (EC50).

In the case of `CC1=Nc2nnnn2C(c2sccc2C)C1C(N)=O` (configuration not stated) [MLS000528936], the EC50 was greater than 300 µM.

In turn, `Cc1nnc2n(-c3ccccc3)c(=O)c3c4c(sc3n12)CCCC4` [MLS000071277] returned an EC50 greater than 300 µM.

Compound `O=C(NC1CCC(C(=O)O)CC1)OCc1ccccc1` (configuration not stated) [4-(phenylmethoxycarbonylamino)cyclohexane-1-carboxylic acid] displayed a concentration giving a half-maximal response (EC50) greater than 300 µM.

For `CC1(C)CC(=O)C=C(Nc2cccc(Cl)c2Cl)C1` [3-[(2,3-dichlorophenyl)amino]-5,5-dimethylcyclohex-2-en-1-one], the concentration giving a half-maximal response (EC50) is greater than 300 µM.

As for `CC(NCCC(Cc1ccccc1)c1ccco1)c1ccccc1` (configuration not stated) [SMR000294034], the EC50 is greater than 300 µM.

Compound `CCOC(=O)c1sc(Nc2ccccc2)nc1C` registered an EC50 greater than 300 µM.

Compound `CCOc1ccc2nc(N3CCC(C(=O)N4CCN(C5CCCCC5)CC4)CC3)sc2c1` [(4-cyclohexyl-1-piperazinyl)-[1-(6-ethoxy-1,3-benzothiazol-2-yl)-4-piperidinyl]methanone] displayed an EC50 greater than 300 µM.

In turn, `Cc1ccc(C(OCCN(C)C)c2cccc(C(F)(F)F)c2)cc1` (configuration not stated) [(Z)-but-2-enedioic acid;N,N-dimethyl-2-[(4-methylphenyl)-[3-(trifluoromethyl)phenyl]methoxy]ethanamine] displayed an EC50 greater than 300 µM.

On to `c1csc(CN=Nc2ncnc3nc[nH]c23)c1` [MLS000419130], for which the EC50 amounted to 19.7 µM.

For the compound `COc1cc(NC2=CC(=O)CC(C)(C)C2)cc(OC)c1OC` [5,5-dimethyl-3-(3,4,5-trimethoxyanilino)-1-cyclohex-2-enone], the EC50 is greater than 300 µM.

As for `O=C(c1cccc(-c2ccccc2)c1)N1CC[C@@H](N2CCC(O)CC2)[C@H](O)C1`, the EC50 is greater than 300 µM.

With `CC(=NNC(=O)c1nnn(-c2nonc2N)c1CN1CCC(C)CC1)c1cccc(Br)c1` [MLS001075097], the EC50 came to 25.4 µM. This counts as double-digit micromolar.

With `O=C(Nc1cc(-c2ccccc2)n[nH]1)c1ccccc1` [SMR000459251], the EC50 is greater than 300 µM.

`O=C(COc1ccccc1[N+](=O)[O-])NN=Cc1cccs1` [SMR000185881] had an EC50 greater than 300 µM.

`C=CCN(c1ccc(C(=O)Nc2ccc(C)c(C)c2)cc1)S(C)(=O)=O` [N-(3,4-dimethylphenyl)-4-[methylsulfonyl(prop-2-enyl)amino]benzamide]: the EC50 was greater than 300 µM.

`c1ccc(CNc2ncnc3scc(-c4cccs4)c23)nc1` [N-(pyridin-2-ylmethyl)-5-thiophen-2-yl-thieno[2,3-d]pyrimidin-4-amine] gave an EC50 greater than 300 µM.

In turn, `Cn1c(SCc2nnc(-c3ccc(F)cc3)o2)nnc1C1COc2ccccc2O1` (configuration not stated) [MLS000098636] registered an EC50 of 221 µM.

`Cc1cccc(OCc2nnc(SCC(=O)Nc3sc(C)c(C)c3C#N)n2C)c1` [N-(3-cyano-4,5-dimethylthiophen-2-yl)-2-[[4-methyl-5-[(3-methylphenoxy)methyl]-1,2,4-triazol-3-yl]sulfanyl]acetamide] came in with an EC50 greater than 300 µM.

As for `CCCCC(=O)Nc1ncc(Br)s1` [MLS000066333], a half-maximal effect (EC50) was put at 4.13 µM. That is a single-digit micromolar value.

In turn, `COCc1c(C(=O)NN=Cc2ccccn2)nnn1-c1nonc1N` yielded an EC50 greater than 300 µM.

Turning to `O=C(CCC1CCN(C(=O)c2cc(C(F)(F)F)ccc2Cl)CC1)NC1CC1` [3-[1-[2-chloro-5-(trifluoromethyl)benzoyl]piperidin-4-yl]-N-cyclopropylpropanamide], the EC50 is greater than 300 µM.

On to `O=C(Nc1cccc(NC(=O)c2ccc3c(c2)OCO3)c1)c1ccccc1` [MLS000706176], for which the EC50 was greater than 300 µM.

For the compound `COc1cc(NC(=O)COC(=O)CCc2cc(OC)c(OC)c(OC)c2)cc(OC)c1` [SMR000349752], the EC50 was greater than 300 µM.

`CC(C)(C)NC(=O)NC(=O)COc1ccc(Br)cc1Br` [SMR000254856] registered an EC50 greater than 300 µM.

`CCOc1ccccc1NC(=O)CSc1nnc(C2CC2)n1CC` [2-[(5-cyclopropyl-4-ethyl-1,2,4-triazol-3-yl)thio]-N-(2-ethoxyphenyl)acetamide] showed an EC50 greater than 300 µM.

The compound `CC(=O)N1CCC(=O)Nc2ccc([N+](=O)[O-])cc21` [MLS000728217] displayed a 50% effective concentration (EC50) greater than 300 µM.

`CN(C)Cc1c(O)ccc2occ(C(=O)c3ccccc3)c12` [SMR000069709]: the EC50 is greater than 300 µM.
